Reference: ChEMBL document CHEMBL1145706, “Illudinic acid, a novel illudane sesquiterpene antibiotic” (J Nat Prod, 1997)
Converted amounts (≈) assume the structure as drawn. The source made the active and inactive calls. The calls are words filed in the database; no cut-off is given here.

Assays:
Staphylococcus aureus [1] = experiment: Antimicrobial activity against methicillin-resistant Staphylococcus aureus COL MB5393; type: functional, organism-based
L1210 [2] = experiment: Cytotoxicity against mouse L1210 cells by MTT assay; type: functional, cell-based
L1210 [3] = experiment: Cytotoxicity against mouse L1210 cells assessed as cell viability by trypan blue assay; type: functional, cell-based
L1210 [4] = experiment: Cytotoxicity against mouse L1210 cells assessed as cell lysis after 24 hrs by trypan blue assay; type: functional, cell-based
P388 = experiment: In vivo antitumor activity against mouse P388 cells assessed as increase in life span at 5 mg/kg, ip for 5 days; type: functional
Enterococcus faecium = experiment: Antimicrobial activity against Enterococcus faecium MB5572; type: functional
Staphylococcus aureus [5] = experiment: Antimicrobial activity against Staphylococcus aureus MB108; type: functional
Pseudomonas aeruginosa = experiment: Antimicrobial activity against Pseudomonas aeruginosa MB2824; type: functional
Escherichia coli = experiment: Antimicrobial activity against Escherichia coli MB1418; type: functional
Proteus vulgaris = experiment: Antimicrobial activity against Proteus vulgaris MB838; type: functional
[6] = tested on: Pectobacterium atrosepticum; experiment: Antimicrobial activity against Erwinia atroseptica MB1159; type: functional
Bacillus subtilis = experiment: Antimicrobial activity against Bacillus subtilis MB964; type: functional
[7] = Antitumor activity against human myeloid leukemia cells xenografted mouse at 3 mg/kg, iv for 14 days; type: functional, Leukemia cell

COc1cccc2c1C(=O)c1c(O)c3c(c(O)c1C2=O)C[C@@](O)(C(=O)CO)C[C@@H]3O[C@H]1C[C@H](N)[C@H](O)[C@H](C)O1 [DOXORUBICIN]
IC50 (Staphylococcus aureus [1]): 16 µg/mL (≈ 29.4 µM)
IC50 (L1210 [2]): 0.2 µg/mL (≈ 0.368 µM)
IC50 (L1210 [3]): < 0.1 µg/mL
Activity (L1210 [4]): inactive

CC1=C2CC(C)(C)C=C2C(=O)[C@](C)(O)C12CC2 [DEOXYILLUDIN M]
Activity (P388; route intraperitoneal): 24%

C=C1C(=O)C2=C(C[C@](C)(C(=O)O)C2)[C@](C)(O)C12CC2 [ILLUDINIC ACID]
MIC (Staphylococcus aureus [1]): 16 µg/mL (≈ 61 µM)
MIC (Enterococcus faecium): > 125 µg/mL
MIC (Staphylococcus aureus [5]): 1 µg/mL (≈ 3.81 µM)
IC50 (L1210 [2]): 15 µg/mL (≈ 57.2 µM)
MIC (Pseudomonas aeruginosa): > 125 µg/mL
IC50 (L1210 [3]): 10 µg/mL (≈ 38.1 µM)
MIC (Escherichia coli): 125 µg/mL (≈ 477 µM)
MIC (Proteus vulgaris): > 125 µg/mL
Activity (L1210 [4]): inactive
MIC [6]: > 125 µg/mL
MIC (Bacillus subtilis): 16 µg/mL (≈ 61 µM)

CN[C@H](CC(C)C)C(=O)N[C@H]1C(=O)N[C@@H](CC(N)=O)C(=O)N[C@H]2C(=O)N[C@H]3C(=O)N[C@H](C(=O)N[C@H](C(=O)O)c4cc(O)cc(O)c4-c4cc3ccc4O)[C@H](O)c3ccc(c(Cl)c3)Oc3cc2cc(c3O[C@@H]2O[C@H](CO)[C@@H](O)[C@H](O)[C@H]2O[C@H]2C[C@](C)(N)[C@H](O)[C@H](C)O2)Oc2ccc(cc2Cl)[C@H]1O [VANCOMYCIN]
IC50 (L1210 [2]): > 1000 µg/mL
IC50 (L1210 [3]): > 1000 µg/mL
Activity (L1210 [4]): inactive

CC1=C2C(=O)C(C)(C)C=C2C(=O)[C@](C)(O)C12CC2 [DEHYDROILLUDIN M]
Activity [7]: 75%

CC1=C2C(=C[C@@](C)(CO)[C@@H]2O)C(=O)[C@](C)(O)C12CC2
Activity (P388): inactive
